Laboratory results taken from patent US20150322406A1, “METHOD FOR REPROGRAMMING SOMATIC CELLS TO PANCREATIC BETA CELLS” (CANCER RESEARCH TECHNOLOGY LIMITED, priority 2012, published 2015).

Test system: NGN3-HA overexpressed in 293T cells
Experiment: Western blot analysis of overexpressed NGN3-HA in 293T cells upon GSK3 inhibitor
Assay type: cell-based
Details: HEK293T cells overexpressing NGN3-HA, treated with GSK3β inhibitor; Western blot (FIG. 6b)
From the text: (A) Schematic representation of the proposed mechanism of NGN3 degradation by Fbw7. (B) Western Blot analysis of overexpressed NGN3-HA in 293T cells upon GSK3 inhibitor. (C) Schematic representation of NGN3 GSK3 phosphorylation residues and the different NGN3 phospho-mutant construct generated. (D) NGN3-HA/Fbw7-Flag Immunoprecipitation assay using the different NGN3 constructs indicated in C. (E) Western Blot analysis of NGN3 in cells overexpressing the different NGN3 construct indicated in C. HEK293T cells were cultured in DMEM and 10% FBS. Cells were plated at subconfluence and transfected with Lipofectamine Reagent (Invitrogen) following the manufacturer instructions. HEK293T cells lysates or tissues were homogenized in RIPA lysis buffer supplemented with protease inhibitor (Sigma). Immunoblots were carried out as previously described^4. The gels were transferred to nitrocellulose membranes, and the membranes were immunoblotted with various antibodies as indicated: anti-NGN3, anti-flag, anti-HA, and anti-Myc. The conversion of pancreatic ductal cells into β-cells observed in the RFY mice in vivo could be due to up-regulation of substrates involved in beta cell neogenesis in the adult pancreas. […] To test whether Fbw7 had any effect on NGN3 protein stability (see FIG. 6a), a set of in vitro experiments were conducted. […]

Cn1cc(C2=C(c3ccc(Cl)cc3Cl)C(=O)NC2=O)c2ccccc21 [SB216763]
NGN3 protein stability: increased
